Measured values: US8795222B2, “Device and method for treatment of surface infections with nitric oxide” (Pulmonox Technologies Corp., priority 2000, dated 2014)

What was measured:
[1] = tested on: all microorganisms tested; test: Bacteriocidal time study, 200 ppm gNO, saline suspension, all organisms together; format: cell-based
Procedure: (§1) Following the dose and time ranging studies, a series of experiments were performed to determine the time required to effectively induce a bacteriocidal effect with 200 parts per million of gNO, a concentration just above the dose used in the dose-ranging study, on a representative collection of drug resistant gram-positive and gram-negative strains of bacteria associated with clinical infection. A successful bacteriocidal effect was defined as a decrease in bacteria greater than 3 log10 cfu/ml. Further, C. albicans, Methicillin Resistant S. aureus (MRSA), a particularly resistant strain of P. aeruginosa from a cystic fibrosis patient, Group B Streptococcus, and M. smegmatis were also included to see if yeast, multi-drug resistant strains of bacteria, and actinomycetes have a similar response. The drug-resistant bacteria represent a variety of pathogens that contribute to both respiratory and wound infections.
(§2) For these experiments, saline was selected as a suspension media because it would not mask the direct effect of gNO as a bacteriocidal, whereas fully supplemented growth medium might introduce external variables (e.g., buffer or react with gNO). Other media might also provide metabolites and replenish nutrients that produce enzymes that protect bacteria from oxidative and nitrosative damage, thereby masking the effect of gNO. […] In saline, the colonies were static but remained viable. This is similar to the approach of Webert and Jean's use of animal models. Webert K E, et al (2000), Effects of inhaled nitric oxide in a rat model of Pseudomonas aeruginosa pneumonia, Crit. Care Med, 28(7):2397-2405 and Jean D, et al., (2002) Beneficial effects of nitric oxide inhalation on pulmonary bacterial clearance, Critical Care Medicine. 30(2):442-7.
(§3) The latent period was then followed by an abrupt death of all cells. Gram negative and gram positive bacteria, antibiotic resistant bacterial strains, yeast and mycobacteria were all susceptible to 200 ppm gNO. Of importance, is the observation that the two drug resistant bacteria strains were also susceptible.

[2] = tested on: fibroblasts grown in a 3D matrix; test: Fibroblasts grown in a 3D matrix, migration and proliferation; format: cell-based; settings: 200 ppm NO for 8 hours per day for 3 days; compared with air or conventional incubator
[3] = Full thickness infected wound model, toxicity, serum NOx and methemoglobin; format: in vivo, rabbits
Text: (§4) In vivo studies in animal models have further shown the beneficial effects of nitric oxide gas. In an animal model, full-thickness cutaneous wounds (Set A: four rabbits with eight 8.0 mm punch biopsies & Set B: 4 rabbits with two 50×15 mm wounds) were made on each side of dorsal midline and infected with equal volume of Staphylococcus aureus suspension on day zero. On day one, treated groups in A and B were respectively exposed to 200 and 400 ppm gNO for total of three days. Set A was exposed for two 4-hour sessions, interrupted by 1-hour of rest, inside a specialized restraining exposure chamber. A 24-hour continuous delivery model was used for animals in Set B by design of a specialized wound patch. Control groups were only exposed to medical grade air with corresponding flow rate. Four random sample punch biopsies (8.0 mm) were collected on post wounding days 3 and analyzed for bacterial content. Another four punch biopsies from both wound and normal skin tissue were collected for fibroblast viability analysis and toxic effects of gNO.
On average well over 10 fold drop (p<0.05) in bacterial content is observed in comparison between control and treated groups.
FIG. 12 indicates the level of methemoglobin (MetHb) in animal's blood following 6 day intermittent exposure to 200 ppm gNO.

MRSA = test: Bacteriocidal time study, 200 ppm gNO, saline suspension; format: cell-based, Methicillin Resistant S. aureus
Procedure: as §1, §2, §3

Fibroblast cells = test: Fibroblast viability study in gNO chamber; format: cell-based, human
Procedure: Fibroblast cells obtained from adult patients undergoing elective reconstructive surgery were cultured in Dulbeco's Modified Eagle's Medium (DMEM), supplemented with 10% fetal bovine serum (FBS) and antibiotic-antimycotic preparation and divided into ten 25 cm^2 vented culture flasks (COSTAR). […] The NO exposure chamber was validated prior to the study to eliminate extraneous variables and ensure optimal conditions for fibroblast cell growth. Another four flasks (control group) were placed inside conventional culture incubator and exposed only to ambient humidified air at 37° C. Two flasks were separately harvested and counted as the number of cells at zero time. Following the treatment, fibroblast cells were harvested and evaluated for morphology, cell count, capacity to proliferate and medium pH.
Cells under gNO appeared healthy and attached to the culture plates.
Capability of cells to reattach to the culture plates within a specified time limit is commonly used as an indication of viability of cells in culture. Both the control and treated groups show a 70% attachment capacity within 1 hour of culturing.

[4] = tested on: full thickness infected wound; test: Histology of full thickness infected wound biopsies; format: in vivo, rabbits; settings: 200 ppm gNO
Procedure: FIG. 13 illustrates histology analysis of full thickness infected wound exposed to 200 ppm gNO for 24 hours.
as §4
FIG. 13 presents histological analysis of tissue blocks prepared on wound punch biopsies from animals in treated and control groups. Samples from the control group show more advanced neutrophil infiltration and so a higher degree of inflammatory reaction. […] Wounds treated with gNO also show a layer of scab closing on the wound, but control wounds remain open for longer period of time.

human endothelial cells = test: Tube formation in matrigel; format: cell-based; settings: 200 ppm NO versus air, 8 hours or 24 hours
Procedure: Left panels at 8 hours of exposure. Right panels at 24 hours of exposure.

Mycobacterium = test: Bacteriocidal time study, 200 ppm gNO, saline suspension; format: cell-based, M. smegmatis
Procedure: as §1, §2
The latent period was then followed by an abrupt death of all cells. Gram negative and gram positive bacteria, antibiotic resistant bacterial strains, yeast and mycobacteria were all susceptible to 200 ppm gNO. Of importance, is the observation that the two drug resistant bacteria strains were also susceptible. […]

[5] = average of the 13 bacteria listed above it, without Mycobacterium

With [N]=O [gNO, nitric oxide] the bacteriocidal effect [1] was “completely bacteriocidal effect”, the “LD100, Average” value [1, 5] was 4.77 h and the “Latent Period*, Average” value [1, 5] was 2.77 h. The “−2.5 Log10, Average” value [1, 5] was 3.82 hrs, the reduction in cfu/ml ([1]; every bacteria challenged) was “at least a three log10 reduction” and the migration of fibroblasts [2] was “does not appear to affect”. The proliferation of fibroblasts [2] was “does not appear to interfere”, the “blood serum NOx (NO2 and NO3) level” value ([3]; 200 ppm gNO intermittently for 6 days) was “None of the samples show an increased level of NOx” and the “toxic effect or damage in the skin of treated animals” value ([3]; 200 ppm gNO, compared with control) was “no toxic effect or damage were observed”. The “blood methemoglobin (MetHb) level” value ([3]; 6 day intermittent exposure to 200 ppm gNO, compared with air control) was “did not show an increase level of MetHB”, the LD100 (MRSA) was 5 h and the “Latent Period*” value (MRSA) was 3 h. For the same compound, the “−2.5 Log10” value (MRSA; time to −2.5 log10 cfu/ml) was 4.2 hrs, the attachment capacity (Fibroblast cells; 160 ppm gNO, within 1 hour of culturing, control the same) was 70% and the “proliferation of fibroblast cells” value (Fibroblast cells; 200 ppm NO, compared with control) was “positive effect of increasing proliferation”. For the same compound, the “harmful effects on the fibroblast” value (Fibroblast cells; around 200 ppm gNO, 24 and 48 hours) was “did not have harmful effects”, the “toxic effect, morphology and attachment” value (Fibroblast cells; gNO concentrations less than 200 ppm continuously for 48 hours) was “No toxic effect” and the “toxic effects (cellular debris due to apoptosis), histology” value [4] was “No toxic effects”. For the same compound, the “healing process, histology” value ([4]; compared with control wounds) was “healthier healing process”, the “neutrophil infiltration in wound” value ([4]; compared with control wounds) was “lower level of neutrophil concentration” and the tube formation (human endothelial cells) was “no significant difference”. For the same compound, the LD100 (Mycobacterium) was 10 h, the “Latent Period*” value (Mycobacterium) was 7 h and the “−2.5 Log10” value (Mycobacterium; time to −2.5 log10 cfu/ml) was 9.2 hrs.
